Measurements taken from patent US9540427B2, “Peptide-based stat inhibitor” (The United States of America, as represented by the …, priority 2007, dated 2017).

Assays:
[1] = tested on: STAT3-deficient MEFs; assay: Survival of STAT3-deficient MEFs; format: cell-based, mouse; conditions: STAT3-deficient MEFs (data not shown)
Description: (§1) Furthermore, survival of normal mouse embryonic fibroblasts (MEFs) and STAT3-deficient MEFs was not affected by treatment with STAT3-Hel2A-2 (data not shown). […] This observation potentially provides a basis for an enhanced therapeutic ratio, based on differential inhibitor effects

[2] = tested on: normal mouse embryonic fibroblasts (MEFs); assay: Survival of normal mouse embryonic fibroblasts; format: cell-based; conditions: normal MEFs (data not shown)
Description: as §1

[3] = tested on: normal mammary epithelial cells MCF-10A; assay: MTT assay of growth and viability, MCF-10A; format: cell-based; conditions: escalating doses
Procedure: Three breast cancer cell lines (MDA-MB-231, T47D, and MDA-MB-435) and normal breast epithelial (MCF-10A) were treated with escalating doses of STAT3-Hel2A-2 (SEQ ID NO: 20). Cell proliferation and cell death were estimated by MTT assay.

Question: Which “Survival of STAT3-deficient cells” value [1] does the source give for `CCCC[C@H](NC(=O)[C@H](CCCNC(=N)N)NC(=O)[C@H](CCCNC(=N)N)NC(=O)[C@H](CC(N)=O)NC(=O)[C@@H]1CCCN1C(=O)[C@H](Cc1ccccc1)NC(=O)[C@H](Cc1c[nH]c2ccccc12)NC(=O)[C@@H](NC(=O)[C@H](CCCCN)NC(=O)[C@@H](NC(=O)[C@H](CCC(N)=O)NC(=O)[C@H](CCCNC(=N)N)NC(=O)[C@H](Cc1ccc(O)cc1)NC(=O)[C@H](CC(C)C)NC(=O)[C@H](CCCCN)NC(=O)[C@H](Cc1c[nH]cn1)NC(=O)[C@H](CC(C)C)NC(=O)[C@H](CCC(N)=O)NC(=O)[C@H](CCC(=O)O)NC(=O)[C@H](CC(C)C)NC(=O)[C@H](Cc1ccc(O)cc1)NC(=O)[C@H](CCCNC(=N)N)NC(=O)[C@@H](NC(=O)[C@H](CC(=O)O)NC(=O)[C@@H](N)CC(C)C)[C@@H](C)O)[C@@H](C)CC)[C@@H](C)CC)C(=O)N[C@@H](CCCCN)C(=O)N[C@@H](Cc1c[nH]c2ccccc12)C(=O)N[C@@H](CCCCN)C(=O)N[C@@H](CCCCN)C(N)=O` [Hel2A-2-Pen] here?
Answer: Its value is “not affected”.

Question: And the “Survival of normal cells” value [2]?
Answer: Its value is “not affected”.

Question: What about the “Growth and viability of normal cells” value [3] of the same molecule?
Answer: The value was “not altered significantly”.
